pIC50: −log10 of the molar value.
Columns and labels:
[1] = molecular target: Recombinant human KAT6B protein (657-1069) (Homo sapiens (Human), UniProt Q8WYB5); test: KAT6B biochemical TR-FRET assay; conditions: histone H4 peptide 1000 nM, AcCoA 100 nM, enzyme 5 nM
Description: Enzymatic reactions of KAT6A and KAT6B were performed using Fluorescence Resonance Energy Transfer (TR-FRET) assay, which measures acetylation of a synthetic, biotinylated histone-H4 peptide by the KAT6A and KAT6B enzymes. Recombinant human KAT6A protein (497-780) were expressed in BL21 cell using an E. coli expression system. Recombinant human KAT6B protein (657-1069) was expressed in sf9 cell using a baculovirus expression system. Histone H4 peptide (SEQ ID NO: 1—[…]-GGK-Biotin), which was used as substrate, was synthesized by GL Biochem, Shanghai, China. Acetyl coenzyme A was purchased from Sigma-Aldrich (#A-2056).
(§1) Testing for the inhibition activities of various compounds disclosed herein was carried out at room temperature in assay buffer containing 100 mM Tris/HCl Ph7.8, 15 mM NaCl, 0.01% chicken egg white albumin, 1 mM DTT and 0.01% Tween-20. Compounds in DMSO were dispensed into wells of a black, 384-well plate (Corning 4514) using ECHO555 (Beckman). The final concentration ranges of the test compounds were 0.0625-1,000 nM, 0.625-10,000 nM, or 0.313-5,000 nM. Five μL of KAT6A or KAT6B enzyme solution were added to wells, and the plate was incubated for 1 hour at room temperature (rt). After incubation for 1 hour at rt, 5 μL H4 and AcCoA substrate solutions were added to the wells to initiate reaction, and the plate was incubated. After 2 hours reaction, 5 μL detection reagent were added to the wells, and the plate was incubated for 2 hours. After two hours incubation, detection reagent containing 5 nM Anti-histone H4 antibody (ABCAM #ab177790), 100 μM formic acid (sigma #06473-100ML), 0.1 test/μL streptavidin-XL665 (PerkinElmer #610SAXLG), 0.05 test/μL PAb anti-rabbit IgG-Eu (PerkinElmer μ61PARKLA) was added to the wells. TR-FRET was measured on a microplate reader (PHERAstar FSX, BMG labtech). The IC50s were calculated based on inhibition of enzyme activity in the presence of increasing concentrations of test compounds, and the results are shown in Table 6. In Table 6, I≤5 nM, 5 nM<II≤50 nM.

[2] = molecular target: Recombinant human KAT6A protein (497-780) (Homo sapiens (Human), UniProt Q92794); test: KAT6A biochemical TR-FRET assay; conditions: histone H4 peptide 2000 nM, AcCoA 300 nM, enzyme 5 nM
Chain of Recombinant human KAT6A protein (497-780) (Q92794 497-780): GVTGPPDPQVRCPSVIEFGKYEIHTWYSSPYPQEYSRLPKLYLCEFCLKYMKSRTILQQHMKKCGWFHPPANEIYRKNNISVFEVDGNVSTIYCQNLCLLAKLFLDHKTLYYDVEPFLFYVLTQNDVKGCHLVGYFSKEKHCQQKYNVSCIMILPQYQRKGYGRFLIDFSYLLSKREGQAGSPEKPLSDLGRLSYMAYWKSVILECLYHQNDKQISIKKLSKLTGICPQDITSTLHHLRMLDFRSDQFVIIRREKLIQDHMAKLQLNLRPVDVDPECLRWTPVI
Description: Enzymatic reactions of KAT6A and KAT6B were performed using Fluorescence Resonance Energy Transfer (TR-FRET) assay, which measures acetylation of a synthetic, biotinylated histone-H4 peptide by the KAT6A and KAT6B enzymes. Recombinant human KAT6A protein (497-780) were expressed in BL21 cell using an E. coli expression system. Recombinant human KAT6B protein (657-1069) was expressed in sf9 cell using a baculovirus expression system. […] Acetyl coenzyme A was purchased from Sigma-Aldrich (#A-2056).
as §1, with “The IC50s were calculated based on inhibition of enzyme activity in the presence of increasing concentrations of test compounds, and the results are shown in Table 6.” left out

[3] = tested on: histone H3K23 acetylation in U-2 OS cells; test: Histone H3 lysine 23 acetylation assay in U-2 OS cells (high content analysis); format: cell-based; conditions: Homo sapiens, U2OS, 24 hrs exposure, H3K23ac level
Description: Assay B: Histone H3 lysine 23 Acetylation Assay
Compounds were tested for their capacity to suppress the histone H3K23 acetylation in the following high content analysis assay.
The cell line U-2 OS (ATCC HTB-96) was seeded at a density of 2000 cells per well in black 384 well cell culture/imaging microplates in 45 μl McCoy's 5A medium with […]. After overnight incubation in 37° C., 5% CO2 incubator, cells were then treated with a 9-point dilution series of compounds and a blank control group with medium containing 0.1% DMSO.
Following a 24 hrs exposure to the compounds, the cells were fixed with 4% immunohistochemical fixative for 20 mins at room temperature, washed with DPBS with 2% fetal bovine serum, and permed with Perm Buffer III for 30 min on ice, washed with DPBS with 2% fetal bovine serum. Then the cells were blocked with Odyssey blocking buffer containing 0.1% Tween 20. 20 ul Anti-Histone H3 (acetyl K23) antibody (Abcam, ab177275) in odyssey blocking buffer containing 0.1% Tween20 was added and incubated overnight at 4° C. After incubation, the cells were washed for 3 times and a secondary antibody Anti-rabbit IgG (H+L), F(ab′)2 Fragment (Alexa Fluor® 647 Conjugate) (CST, 4414S) were added into cells for one hour. The cells were washed and 1 ug/ml DAPI (Thermo, 62248) were added for 10 min. Then cells were washed and read on the PerkinElmer Operetta CLS high content analysis system. The nuclei were identified by DAPI and H3K23ac level was calculated from the Alexa Fluor 647 intensity in the nuclei. Inhibition rate of H3K23ac was calculated as the mean intensity of cells per well relative to blank controls on the same plate.

Chain of Recombinant human KAT6B protein (657-1069) (Q8WYB5 657-1069): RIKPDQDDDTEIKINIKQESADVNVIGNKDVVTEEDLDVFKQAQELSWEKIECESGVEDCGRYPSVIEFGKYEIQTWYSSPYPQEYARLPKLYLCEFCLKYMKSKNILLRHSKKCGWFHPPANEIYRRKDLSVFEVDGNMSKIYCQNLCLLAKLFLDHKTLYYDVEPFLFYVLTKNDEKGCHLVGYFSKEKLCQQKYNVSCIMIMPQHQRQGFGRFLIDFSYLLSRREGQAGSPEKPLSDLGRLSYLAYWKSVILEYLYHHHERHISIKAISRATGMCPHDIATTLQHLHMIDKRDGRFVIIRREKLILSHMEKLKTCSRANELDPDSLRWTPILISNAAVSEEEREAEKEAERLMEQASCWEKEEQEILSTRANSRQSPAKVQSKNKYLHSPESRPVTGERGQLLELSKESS

| SMILES | pIC50 [1] | pIC50 [2] | IC50 [3] [nM] |
| --- | --- | --- | --- |
| C=Cc1cc(C(=O)NS(=O)(=O)c2c(OC)ccc3c2OCC3(C)C)ccc1Cn1cccn1 [Example C50, 4-((1H-pyrazol-1-yl)methyl)-N-((6-methoxy-3,3-dimethyl-2,3-dihydrobenzofuran-7-yl)sulfonyl)-3-vinylbenzamide] | ≥ 8.30 | ≥ 8.30 | ≤ 10 |
| COc1ccc(C(C)(C)C)cc1S(=O)(=O)NC(=O)c1ccc(Cn2cccn2)c(I)c1 [Example C1, 4-((1H-pyrazol-1-yl)methyl)-N-((5-(tert-butyl)-2-methoxyphenyl)sulfonyl)-3-iodobenzamide] | ≥ 8.30 | ≥ 8.30 | ≤ 10 |
| COc1ccc(C(C)(C)C)nc1S(=O)(=O)NC(=O)c1ccc(Cn2cccn2)c(C2COC2)c1 [Example C19, 4-((1H-pyrazol-1-yl)methyl)-N-((6-(tert-butyl)-3-methoxypyridin-2-yl)sulfonyl)-3-(oxetan-3-yl)benzamid] | ≥ 8.30 | ≥ 8.30 | 10 to 100 |
| CCc1cc(C(=O)NS(=O)(=O)c2c(OC)ccc3c2OCC3(C)C)ccc1Cn1cccn1 [Example C51, 4-((1H-pyrazol-1-yl)methyl)-3-ethyl-N-((6-methoxy-3,3-dimethyl-2,3-dihydrobenzofuran-7-yl)sulfonyl)benzamide] | ≥ 8.30 | ≥ 8.30 | ≤ 10 |
| COc1cc(C(=O)NS(=O)(=O)c2nc(C(C)(C)C)ccc2OC)ccc1Cn1cccn1 [Example C27, 4-((1H-pyrazol-1-yl)methyl)-N-((6-(tert-butyl)-3-methoxypyridin-2-yl)sulfonyl)-3-methoxy-benzamide] | ≥ 8.30 | ≥ 8.30 | ≤ 10 |
| CCc1cc(C(=O)NS(=O)(=O)c2cc(C(C)(C)C)ccc2OC)ccc1Cn1cccn1 [Example C6, 4-((1H-pyrazol-1-yl)methyl)-N-((5-(tert-butyl)-2-methoxyphenyl)sulfonyl)-3-ethylbenzamide] | ≥ 8.30 | ≥ 8.30 | ≤ 10 |
| COc1ccc(C(C)(C)C)nc1S(=O)(=O)NC(=O)c1ccc(Cn2cccn2)c(F)c1 [Example C24, 4-((1H-pyrazol-1-yl)methyl)-N-((6-(tert-butyl)-3-methoxypyridin-2-yl)sulfonyl)-3-fluorobenzamide] | ≥ 8.30 | ≥ 8.30 | 10 to 100 |
| COc1ccc(C2(C)CC3(COC3)C2)cc1S(=O)(=O)NC(=O)c1ccc(Cn2cccn2)c(OC)n1 [Example C74, 5-((1H-pyrazol-1-yl)methyl)-6-methoxy-N-((2-methoxy-5-(6-methyl-2-oxaspiro[3.3]heptan-6-yl)phenyl)sulfonyl) picolinamide] | ≥ 8.30 | ≥ 8.30 | ≤ 10 |

The remaining lines, values ahead:

| pIC50 [1] | pIC50 [2] | IC50 [3] [nM] | SMILES |
| --- | --- | --- | --- |
| ≥ 8.30 | ≥ 8.30 | ≤ 10 | COc1ccc(C(C)(C)C)cc1S(=O)(=O)NC(=O)c1ccc(Cn2cccn2)c(Br)c1 [Example C14, 4-((1H-pyrazol-1-yl)methyl)-3-bromo-N-((5-(tert-butyl)-2-methoxyphenyl)sulfonyl)benzamide] |
| ≥ 8.30 | ≥ 8.30 | ≤ 10 | C=Cc1cc(C(=O)NS(=O)(=O)c2cc(C(C)(C)C)ccc2OC)ccc1Cn1cccn1 [Example C4, 4-((1H-pyrazol-1-yl)methyl)-N-((5-(tert-butyl)-2-methoxyphenyl)sulfonyl)-3-vinylbenzamide] |
| ≥ 8.30 | ≥ 8.30 | ≤ 10 | [2H]C([2H])([2H])Oc1nc(C(=O)NS(=O)(=O)c2c(OC)ccc3c2OCC3(C)C)ccc1Cn1cccn1 [Example C64, 5-((1H-pyrazol-1-yl)methyl)-6-(methoxy-d3)-N-((6-methoxy-3,3-dimethyl-2,3-dihydrobenzofuran-7-yl)sulfonyl) picolinamide] |
| ≥ 8.30 | 7.30 to 8.30 | ≤ 10 | COc1ccccc1S(=O)(=O)NC(=O)c1ccc(Cn2cccn2)c(OC)n1 [Example C68, 5-((1H-pyrazol-1-yl)methyl)-6-methoxy-N-((2-methoxyphenyl)sulfonyl) picolinamide] |
| ≥ 8.30 | ≥ 8.30 | ≤ 10 | [2H]C([2H])([2H])Oc1nc(C(=O)NS(=O)(=O)c2c(OC)ccc3c2OC(C)(C)C3)ccc1Cn1cccn1 [Example C65, 5-((1H-pyrazol-1-yl)methyl)-6-(methoxy-d3)-N-((6-methoxy-2,2-dimethyl-2,3-dihydrobenzofuran-7-yl)sulfonyl) picolinamide] |
| ≥ 8.30 | ≥ 8.30 | ≤ 10 | COc1ccc2c(c1S(=O)(=O)NC(=O)c1ccc(Cn3cccn3)c(OC)n1)OCC(C)(C)C2 [Example C55, 5-((1H-pyrazol-1-yl)methyl)-6-methoxy-N-((7-methoxy-3,3-dimethylchroman-8-yl)sulfonyl)picolinamide] |
| ≥ 8.30 | ≥ 8.30 | ≤ 10 | COc1ccc(C(C)(C)C)cc1S(=O)(=O)NC(=O)c1ccc(Cn2cccn2)c(OC)n1 [Example C40, 5-((1H-pyrazol-1-yl)methyl)-N-((5-(tert-butyl)-2-methoxyphenyl)sulfonyl)-6-methoxypicolinamide] |
| ≥ 8.30 | ≥ 8.30 | ≤ 10 | COc1ccc(C2(C)CCOCC2)cc1S(=O)(=O)NC(=O)c1ccc(Cn2cccn2)c(OC)n1 [Example C70, 5-((1H-pyrazol-1-yl)methyl)-6-methoxy-N-((2-methoxy-5-(4-methyltetrahydro-2H-pyran-4-yl)phenyl)sulfonyl) picolinamide] |
| ≥ 8.30 | ≥ 8.30 | ≤ 10 | CCc1cc(C(=O)NS(=O)(=O)c2nc(C(C)(C)C)ccc2OC)ccc1Cn1cccn1 [Example C23, 4-((1H-pyrazol-1-yl)methyl)-N-((6-(tert-butyl)-3-methoxypyridin-2-yl)sulfonyl)-3-ethylbenzamide] |
